Laboratory results from US10265298B2, “Method of increasing the bioavailability of silybin” (Macau University of Science and Technology, priority 2017, dated 2019).

How the values were obtained:
[1] = system: rat sandwich-cultured hepatocytes; test: in vitro; type: in vitro ADME
Protocol: Sandwich-cultured rat hepatocytes (SCHs) were established according to previously described methods with minor modifications. Primary rat hepatocytes were isolated from male Sprague Dawley® (SD) rats (220-270 g) using a collagenase perfusion as described previously and plated at a density of 7.4×10^5 cells/2 ml/well onto six-well BioCoat plates. Approximately 24 hours later, hepatocytes were overlaid with 2 ml of 0.25 mg/ml BD Matrigel basement membrane matrix in Dulbecco's modified Eagle medium (DMEM) containing 1% volume by volume percentage (v/v) insulin/transferrin/selenium culture supplement, […] dexamethasone, 2 mM L-glutamine, 1% (v/v) minimum essential medium nonessential amino acids, 1% penicillin-streptomycin. Hepatocytes were cultured for 4 days to allow extensive formation of canalicular networks between cells before experimentation and the medium was changed daily.
Sandwich-cultured hepatocytes (SCHs) were pre-incubated in 2 milliliters (ml) of warm Hank's Balanced Salt Solution (HBSS) with or without Ca^2+ at 37° C. for 15 minutes; the tight junctions of the bile canaliculi open temporally after exposure to HBSS without Ca^2+. Subsequently, cells were incubated at 37° C. for 20 minutes with 1.5 ml of standard HBSS containing silybin (10 μM), or MK 571 (50 μM) as a positive control, or baicalein (25, 15.8, 5, 1.58, 0.5, 0.16 μM), or tangeretin (25, 15.8, 5, 1.58, 0.5 μM). After 20 min, cells were washed three times with ice-cold standard HBSS. The cell samples were lysed by sonication in 1 ml of water for 5 seconds with the ultrasonic cell disruption system (SONICS & […], INC., Newtown, Conn., USA). Conjugated silybin and unconjugated (free) silybin were quantified by high-performance liquid chromatography-tandem mass spectrometry (HPLC-MS/MS). Transport function was normalized to the protein content of the hepatocytes which was evaluated by bicinchoninic acid (BCA) protein assay (Pierce Chemical, Rockford, Ill.). The biliary excretion index (BEI; %) and in vitro biliary clearance (Clbiliary; ml/min/kg) were calculated by using B-CLEAR technology (Qualyst, Inc., Research Triangle Park, N.C.) based on the following equations: […]

MDCKII-WT cells = type: in vitro ADME, canine; details: for mean net efflux ratio: MDCK
Protocol: (§1) In all cases, each determination was performed in triplicate.
(§2) 1.5 Preparation of Rat Sandwich-Cultured Hepatocytes

MDR1 (P-gp) = MDR1 (P-gp) (Homo sapiens, UniProt P08183); test: Transport of silybin across MDCKII-MDR1 cells; details: for net efflux ratio: absence of any inhibitor
Protocol: Parental Madin-Darby canine kidney II (MDCKII), multi-drug resistance gene 1-Madin-Darby canine kidney II (MDR1-MDCKII), breast cancer resistance protein-Madin-Darby canine kidney II (BCRP-MDCKII), and multi-drug resistance protein 2-Madin-Darby canine kidney II (MRP2-MDCKII) cells were kindly provided by the Netherlands Cancer Institute (Amsterdam, Netherlands) and frozen at −80° C. The MDCKII cells were cultured at 37° C./5% CO2 in Dulbecco's modified Eagle's medium supplemented with 10% fetal bovine serum, 1% nonessential amino acids, and 2% penicillin-streptomycin. The cells were seeded on transwell inserts (Corning Inc.) at a density of 2.0×10^5 cells/cm^2 and grown for 4-5 days to form confluent monolayers. […]
Bidirectional transport assays in human colorectal adenocarcinoma 2 (Caco-2) and Madin-Darby canine kidney II (MDCK II) was carried out by dosing substrates in assay buffer to either the apical chamber (A-to-B) or the basolateral chamber (B-to-A); cells were then incubated at 37° C. with shaking at 50 rotations per minute (rpm), and 100 μl samples were collected at 30, 60, 90, 120 and 180 minutes from the basolateral chamber to study the drug transport of AP to BL, or apical chamber to study the drug transport of BL to AP. […] For fluorescence intensity detection, samples collected from AP or BL side were immediately detected in 96 well black plate by Microplate ultraviolet-visible spectroscopy (UV/VIS) spectrophotometer (TECAN infinite M200 PRO, Männedorf, Switzerland). […]
The apparent permeability coefficients (Papp) were calculated as Papp=dQ/dt×1/(C“0”A) where dQ/dt (mM/sec) is the rate of permeation of the drug across the cells, C0 (millimolar (mM)) is the donor compartment concentration at time zero and A (cm^2) is the area of the cell monolayer. […] Efflux Ratio (ER)=Papp (B to A)/Papp (A to B), while Papp (B−A) is the Papp value measured in the B to A direction, and Papp (A−B) is the Papp value measured in the A to B direction. […]

BCRP = biological target: T1, BCRP (Homo sapiens, UniProt Q9UNQ0); test: Transport of silybin across MDCKII-BCRP cells; type: in vitro ADME; set-up: host or cells: MDCKII (Madin-Darby canine kidney II)
T1 sequence (Q9UNQ0 1-655): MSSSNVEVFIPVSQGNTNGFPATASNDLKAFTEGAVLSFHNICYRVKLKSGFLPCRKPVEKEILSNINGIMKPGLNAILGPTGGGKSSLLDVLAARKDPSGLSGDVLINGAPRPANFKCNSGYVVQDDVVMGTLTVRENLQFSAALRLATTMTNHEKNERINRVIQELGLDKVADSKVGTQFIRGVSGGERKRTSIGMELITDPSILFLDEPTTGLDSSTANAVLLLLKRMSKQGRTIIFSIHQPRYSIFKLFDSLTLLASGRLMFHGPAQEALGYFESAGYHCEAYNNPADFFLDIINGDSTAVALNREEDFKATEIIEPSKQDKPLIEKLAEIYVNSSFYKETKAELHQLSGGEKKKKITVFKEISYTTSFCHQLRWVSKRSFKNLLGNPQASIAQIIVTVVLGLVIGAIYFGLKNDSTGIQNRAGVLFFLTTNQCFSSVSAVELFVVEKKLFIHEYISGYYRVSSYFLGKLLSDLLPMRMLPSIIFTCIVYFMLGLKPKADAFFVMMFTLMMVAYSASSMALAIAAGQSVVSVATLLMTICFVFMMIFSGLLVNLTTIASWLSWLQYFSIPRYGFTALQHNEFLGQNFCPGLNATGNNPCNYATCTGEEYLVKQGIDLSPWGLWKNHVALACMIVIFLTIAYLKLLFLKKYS
Protocol: as §1, §2

Chain of MDR1 (P-gp) (P08183 whole entry): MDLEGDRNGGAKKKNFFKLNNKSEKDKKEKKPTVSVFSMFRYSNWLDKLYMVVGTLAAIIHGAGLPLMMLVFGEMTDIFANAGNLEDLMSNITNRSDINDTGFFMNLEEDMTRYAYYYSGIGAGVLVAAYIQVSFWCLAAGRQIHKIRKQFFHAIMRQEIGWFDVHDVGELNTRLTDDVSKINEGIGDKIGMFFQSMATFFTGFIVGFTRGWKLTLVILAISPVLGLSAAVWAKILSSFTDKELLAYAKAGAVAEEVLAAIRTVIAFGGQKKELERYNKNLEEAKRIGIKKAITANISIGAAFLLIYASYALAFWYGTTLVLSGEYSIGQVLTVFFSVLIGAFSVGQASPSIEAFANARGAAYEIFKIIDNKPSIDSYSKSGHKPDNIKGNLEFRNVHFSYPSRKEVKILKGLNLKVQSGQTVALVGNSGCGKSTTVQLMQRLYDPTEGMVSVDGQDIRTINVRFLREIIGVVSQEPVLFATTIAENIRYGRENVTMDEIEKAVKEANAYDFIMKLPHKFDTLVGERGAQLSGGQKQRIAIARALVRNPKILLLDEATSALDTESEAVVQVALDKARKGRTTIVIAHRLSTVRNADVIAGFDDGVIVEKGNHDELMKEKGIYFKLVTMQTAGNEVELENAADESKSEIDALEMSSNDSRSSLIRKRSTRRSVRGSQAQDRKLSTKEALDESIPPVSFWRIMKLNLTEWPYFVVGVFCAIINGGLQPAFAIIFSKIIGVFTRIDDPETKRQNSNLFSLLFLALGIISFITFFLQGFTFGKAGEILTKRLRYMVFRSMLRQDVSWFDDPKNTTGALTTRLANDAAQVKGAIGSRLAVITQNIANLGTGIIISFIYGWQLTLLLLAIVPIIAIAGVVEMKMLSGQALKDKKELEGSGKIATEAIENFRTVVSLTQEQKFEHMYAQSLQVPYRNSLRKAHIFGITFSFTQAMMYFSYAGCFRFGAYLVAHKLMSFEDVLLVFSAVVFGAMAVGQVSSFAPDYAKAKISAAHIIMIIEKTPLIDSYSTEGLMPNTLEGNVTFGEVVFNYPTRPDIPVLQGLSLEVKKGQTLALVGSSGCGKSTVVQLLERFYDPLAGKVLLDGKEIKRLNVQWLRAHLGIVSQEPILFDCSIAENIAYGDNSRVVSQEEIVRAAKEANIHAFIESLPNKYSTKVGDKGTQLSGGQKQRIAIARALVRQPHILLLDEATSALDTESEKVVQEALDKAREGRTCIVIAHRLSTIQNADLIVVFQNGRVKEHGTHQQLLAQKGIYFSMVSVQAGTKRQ

SMILES	mean BEI (biliary excretion index), free silybin [1]	intrinsic biliary clearance ([1]; rat, hepatocytes)	mean net efflux ratio (MDCKII-WT cells)	net efflux ratio (MDR1 (P-gp))	net efflux ratio (BCRP)	also measured
O=c1cc(-c2ccccc2)oc2cc(O)c(O)c(O)c12 [baicalein]						reduction of biliary excretion of silybin ([1]; baicalein at 25 μM, silybin 10 μM): ~75%
COc1cc([C@H]2Oc3cc([C@H]4Oc5cc(O)cc(O)c5C(=O)[C@@H]4O)ccc3O[C@@H]2CO)ccc1O [silybin A]	35±4%	2.1±0.2 μl/(min·mg protein)	1.01	1.39	2.96	
COc1cc([C@@H]2Oc3cc([C@H]4Oc5cc(O)cc(O)c5C(=O)[C@@H]4O)ccc3O[C@H]2CO)ccc1O [silybin B]	33±1%	2.5±0.4 μl/(min·mg protein)	0.99	1.20	3.04	
COc1cc(C2Oc3cc([C@H]4Oc5cc(O)cc(O)c5C(=O)[C@@H]4O)ccc3OC2CO)ccc1O (stereo partly drawn) [silybin]						permeability of silybin in absence or presence of P-gp, MRP and BCRP efflux inhibitors (MDCKII-WT cells; Caco-2): no significant difference; MDR1 (P-gp) substrate status (MDR1 (P-gp); dog, MDCK-MDR1, 180 min, 10 µM): is not a substrate for MDR1 (P-gp) efflux transporter; BCRP substrate status (BCRP; dog, 180 min, 10 µM): is a substrate for both MRP2 and BCRP efflux proteins
COc1ccc(-c2cc(=O)c3c(OC)c(OC)c(OC)c(OC)c3o2)cc1 [tangeretin]						effect on biliary clearance of silybin ([1]; rat, hepatocytes): inhibited the biliary clearance of silybin
